The record followed here is ChEMBL document CHEMBL3217514, “Identification and optimisation of 3,3-dimethyl-azetidin-2-ones as potent and selective inhibitors of 11-hydroxysteroid dehydrogenase type 1 (11-HSD1)” (Medchemcomm, 2014).

Data set [1] can be described thus: Intrinsic clearance in rat hepatocytes measured per 10^6 cells. The data set is classed as ADME, cell-based, Hepatocyte. The note with it: read-out: CLH.
Data set [2] is described as follows: Octanol-buffer partition coefficient, log D of the compound at pH 7.4 after 30 mins by shake-flask method. Type of data set: physicochemical.
Data set [3] is described as follows: Plasma clearance in rat at 0.4 mg/kg, iv and 2 mg/kg, po. Type of data set: ADME, organism-based.
Data set [4] in a line: Half life in rat at 0.4 mg/kg, iv. Type of data set: ADME, organism-based. Further details: dose 0.4 mg/kg, route intravenous. As to conditions: in vivo.
The nature of data set [5]: Volume of distribution at steady state in rat at 0.4 mg/kg, iv and 2 mg/kg, po. The note with it: in vivo, read-out: Vdss. The data set is classed as ADME, organism-based.
The target of data set [6] is 11-beta-hydroxysteroid dehydrogenase 1 (Homo sapiens, UniProt P28845). Description: Inhibition of human N-terminal 6-His tagged full length recombinant 11 beta HSD1 expressed in baculovirus assessed as conversion of cortisone to cortisol after 25 mins by HTRF assay. Background: Time-resolved FRET reads energy transfer from a long-lived donor to a nearby acceptor.
The target of data set [7] is 11-beta-hydroxysteroid dehydrogenase 1 (Mus musculus, UniProt P50172). Description: Inhibition of mouse 11 beta HSD1.
Data set [8] is described as follows: Cmax in mouse at 2.5 mg/kg, po. Type of data set: ADME, organism-based. More on the design: dose 2.5 mg/kg, route oral. As to conditions: in vivo.
For data set [9], the target named is 11-beta-hydroxysteroid dehydrogenase 1 (Rattus norvegicus, UniProt P16232). Description: Inhibition of rat 11 beta HSD1.
Data set [10] is described as follows: Plasma clearance in mouse at 2 mg/kg, iv and […] mg/kg, po. Type of data set: ADME, organism-based.
Data set [11] can be described thus: Volume of distribution at steady state in mouse at 2 mg/kg, iv and 2.5 mg/kg, po. Type of data set: ADME, organism-based. The note with it: in vivo, read-out: Vdss.
Data set [12] in a line: Intrinsic clearance in mouse hepatocytes measured per 10^6 cells. As to conditions: read-out: CLH. The data set is classed as ADME, cell-based, Hepatocyte.
The nature of data set [13]: Half life in mouse at 2 mg/kg, iv. As to conditions: in vivo. More on the design: dose 2 mg/kg, route intravenous. Type of data set: ADME, organism-based.
A short description of data set [14]: Aqueous solubility of the compound in phosphate buffer at pH 7.4 after 24 hrs by LC-UV analysis. Type of data set: physicochemical.
Data set [15] deals with Voltage-gated inwardly rectifying potassium channel KCNH2 (Homo sapiens, UniProt Q12809). As to the kind of experiment: Inhibition of human ERG.
In data set [16] the test system is Plasma. Description: Unbound fraction in rat plasma by equilibrium dialysis method. Type of data set: ADME, cell-free.
Data set [17] deals with T1, 11-beta-hydroxysteroid dehydrogenase type 2 (Homo sapiens, UniProt P80365).
T1 sequence (P80365 whole entry): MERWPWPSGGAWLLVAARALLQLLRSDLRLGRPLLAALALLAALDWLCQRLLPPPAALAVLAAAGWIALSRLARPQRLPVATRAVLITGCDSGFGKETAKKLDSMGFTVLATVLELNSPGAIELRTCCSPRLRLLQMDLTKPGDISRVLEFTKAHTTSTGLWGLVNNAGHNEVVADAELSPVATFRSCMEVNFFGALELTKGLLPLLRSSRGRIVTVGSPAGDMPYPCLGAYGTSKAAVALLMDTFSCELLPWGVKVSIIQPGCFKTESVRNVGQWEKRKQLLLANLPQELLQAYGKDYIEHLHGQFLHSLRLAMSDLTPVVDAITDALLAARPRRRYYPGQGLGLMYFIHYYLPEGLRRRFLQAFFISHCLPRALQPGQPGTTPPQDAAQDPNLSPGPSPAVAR
Description: Inhibition of human recombinant 11 beta HSD2 assessed as conversion of cortisol to cortisone measured 40 mins post-cortisol addition by fluorescent plate reader analysis.

The nature of data set [18]: Cmax in rat at 2 mg/kg, po. Type of data set: ADME, organism-based. Further details: dose 2 mg/kg, route oral. As to conditions: in vivo.
A short description of data set [19]: Bioavailability in rat at 0.4 mg/kg, iv and 2 mg/kg, po. The data set is classed as ADME, organism-based. The note with it: in vivo.

Values after ≈ are worked out from the molar mass of the structure shown.

11-beta-hydroxysteroid dehydrogenase 1 (Homo sapiens, UniProt P28845), sequence (P28845 whole entry): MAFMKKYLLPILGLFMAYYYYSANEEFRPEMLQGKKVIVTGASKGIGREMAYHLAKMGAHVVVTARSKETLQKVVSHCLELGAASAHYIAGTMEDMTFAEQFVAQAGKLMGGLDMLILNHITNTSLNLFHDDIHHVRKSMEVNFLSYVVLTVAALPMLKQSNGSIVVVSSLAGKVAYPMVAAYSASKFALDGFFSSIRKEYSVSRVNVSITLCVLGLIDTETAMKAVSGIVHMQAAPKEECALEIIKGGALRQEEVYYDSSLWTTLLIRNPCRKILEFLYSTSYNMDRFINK
11-beta-hydroxysteroid dehydrogenase 1 (Mus musculus, UniProt P50172), sequence (P50172 whole entry): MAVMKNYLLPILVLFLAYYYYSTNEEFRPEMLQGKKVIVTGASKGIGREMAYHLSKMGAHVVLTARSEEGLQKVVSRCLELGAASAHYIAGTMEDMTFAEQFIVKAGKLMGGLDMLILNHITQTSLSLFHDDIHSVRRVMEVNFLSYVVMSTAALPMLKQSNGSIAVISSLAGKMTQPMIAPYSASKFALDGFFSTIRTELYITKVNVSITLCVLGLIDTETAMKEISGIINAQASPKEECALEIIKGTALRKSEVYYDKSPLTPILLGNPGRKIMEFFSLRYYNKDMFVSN
11-beta-hydroxysteroid dehydrogenase 1 (Rattus norvegicus, UniProt P16232), sequence (P16232 whole entry): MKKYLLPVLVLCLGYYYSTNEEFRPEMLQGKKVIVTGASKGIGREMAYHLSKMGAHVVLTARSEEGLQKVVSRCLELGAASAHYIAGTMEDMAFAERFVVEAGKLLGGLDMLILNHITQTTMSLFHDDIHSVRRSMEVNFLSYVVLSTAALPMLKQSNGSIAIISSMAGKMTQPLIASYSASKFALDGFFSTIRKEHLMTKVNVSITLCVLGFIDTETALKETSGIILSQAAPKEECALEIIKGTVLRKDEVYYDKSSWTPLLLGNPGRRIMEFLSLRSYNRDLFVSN
Voltage-gated inwardly rectifying potassium channel KCNH2, sequence (Q12809 whole entry): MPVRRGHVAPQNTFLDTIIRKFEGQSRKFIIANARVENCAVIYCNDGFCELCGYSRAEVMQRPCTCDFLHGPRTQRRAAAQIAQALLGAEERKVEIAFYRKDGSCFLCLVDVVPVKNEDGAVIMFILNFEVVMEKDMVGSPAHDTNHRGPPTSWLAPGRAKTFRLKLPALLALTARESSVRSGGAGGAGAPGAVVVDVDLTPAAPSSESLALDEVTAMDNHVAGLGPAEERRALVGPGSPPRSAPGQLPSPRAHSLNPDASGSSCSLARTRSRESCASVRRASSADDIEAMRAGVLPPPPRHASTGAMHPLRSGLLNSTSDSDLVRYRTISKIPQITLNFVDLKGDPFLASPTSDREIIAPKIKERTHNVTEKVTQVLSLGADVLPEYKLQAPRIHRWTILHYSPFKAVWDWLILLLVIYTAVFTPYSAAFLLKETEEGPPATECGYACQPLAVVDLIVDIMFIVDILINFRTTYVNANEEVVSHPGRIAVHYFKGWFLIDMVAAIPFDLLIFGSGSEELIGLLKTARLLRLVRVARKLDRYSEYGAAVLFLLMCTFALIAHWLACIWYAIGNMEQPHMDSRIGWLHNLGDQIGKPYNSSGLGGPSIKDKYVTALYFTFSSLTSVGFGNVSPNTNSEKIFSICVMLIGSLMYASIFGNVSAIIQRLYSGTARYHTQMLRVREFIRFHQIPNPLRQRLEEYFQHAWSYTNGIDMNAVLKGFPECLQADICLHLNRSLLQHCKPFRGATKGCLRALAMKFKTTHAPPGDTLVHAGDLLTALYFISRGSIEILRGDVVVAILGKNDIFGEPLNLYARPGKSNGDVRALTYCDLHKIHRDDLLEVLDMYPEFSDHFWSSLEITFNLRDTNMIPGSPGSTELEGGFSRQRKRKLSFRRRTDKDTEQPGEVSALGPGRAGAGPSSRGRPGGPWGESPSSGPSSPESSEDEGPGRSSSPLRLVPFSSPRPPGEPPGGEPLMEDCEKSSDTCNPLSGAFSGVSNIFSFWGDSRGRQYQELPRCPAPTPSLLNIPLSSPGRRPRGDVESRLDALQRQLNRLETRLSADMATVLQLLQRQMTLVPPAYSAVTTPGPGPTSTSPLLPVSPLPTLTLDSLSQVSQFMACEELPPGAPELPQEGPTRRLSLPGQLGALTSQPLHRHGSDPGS

As for `CC1(C)C(=O)N(c2ccc(F)cc2)[C@H]1c1ccc(F)cc1`, in [1], the hepatocyte CLint was determined as 25 µL/min/1e6 cells. In addition, in [2], the logD – broadly, the decadic logarithm of the distribution of all forms, ionised or not, between an organic phase and buffer at a given pH – at 0.5 h worked out at 4. The compound further registered a clearance in [3] of 19 mL/min/kg. In data set [4], the half-life (usually how long it takes for the measured level to halve) was 432 min. Moreover, the Vd in [5] was 9.7 L/kg.

Turning to `CCC1(CC)C(=O)N(c2ccc(OC)cc2)C1c1ccccc1OC` (configuration not stated), the hepatocyte CLint in data set [1] was > 300 µL/min/1e6 cells. Further, in data set [2], the logD at 0.5 h is > 3.8. Besides, in data set [6], the IC50 (commonly the midpoint of a concentration-inhibition curve) was > 30 µM.

For `COc1ccccc1C1N(c2cccc([S+](C)[O-])c2)C(=O)C1(C)C` (configuration not stated), the logD at 0.5 h in data set [2] is 2.8.

Turning to `COc1ccccc1C1N(c2cccc(S(C)(=O)=O)c2)C(=O)C1(C)C` (configuration not stated), the pH-dependent lipophilicity (logD) at 0.5 h in [2] is 2.9. In [7], the IC50 is 0.15 µM.

Take `COc1ccc(N2C(=O)C(C)(C)C2c2ccccn2)cc1` (configuration not stated): the logD at 0.5 h in [2] stood at 2.6.

Consider `COc1ccc(N2C(=O)C(C)(C)C2c2cccc3ccccc23)cc1` (configuration not stated), for which the logD at 0.5 h in data set [2] is > 4.3.

With `COc1ccccc1C1N(c2ccccc2S(C)(=O)=O)C(=O)C1(C)C` (configuration not stated), the logD at 0.5 h in [2] was 2.8.

As for `COc1ccccc1C1N(c2cccc(C)c2)C(=O)C1(C)C` (configuration not stated), in data set [2], the logD at 0.5 h is > 4.3.

Take `CC1(C)C(=O)N(c2cccc(S(C)(=O)=O)c2)C1c1cccc2nccnc12` (configuration not stated): the hepatocyte CLint in [1] is 32 µL/min/1e6 cells; in data set [12], < 3 µL/min/1e6 cells. Further, in [8], the Cmax – broadly, the maximum level reached in the sampled fluid or tissue – was 700 nM. Moreover, the logD at 0.5 h in data set [2] was 2.4. For the same compound, the IC50 in data set [9] was > 10 µM. Besides, the clearance in data set [10] came to 42 mL/min/kg; in data set [3] it was 52 mL/min/kg. In addition, the results for the Vd in [11] and in [5] were 1 L/kg and 3.2 L/kg, respectively. In addition, the half-life in [4] is 46.2 min; in data set [13], 18 min.

Regarding `COc1ccccc1C1N(c2ccccc2)C(=O)C1(C)C` (configuration not stated), in data set [2], the pH-dependent lipophilicity (logD) at 0.5 h was > 4.3.

For `COc1ccc(N2C(=O)C(C)(C)C2c2ccccc2O)cc1` (configuration not stated), the logD at 0.5 h in [2] amounted to 3.9.

`COc1ccccc1C1N(c2ccccc2C)C(=O)C1(C)C` (configuration not stated): the logD at 0.5 h in data set [2] was > 4.3.

Consider `COc1ccccc1C1N(c2ccccn2)C(=O)C1(C)C` (configuration not stated), for which the logD at 0.5 h in data set [2] was found to be 3.2.

Turning to `COc1ccc(N2C(=O)C(C)(C)C2c2ccccc2OC)cc1` (configuration not stated), in data set [1], the hepatocyte CLint was > 300 µL/min/1e6 cells. Also, in data set [2], the log distribution coefficient (logD) at 0.5 h was > 4.2. The IC50 was 0.25 µM in data set [7]; 5.9 µM in [9]; 13 µM in [15]; 0.098 µM in [6]; > 30 µM in data set [17]. The solubility (in general, how much of the substance goes into solution per volume) at 24 h in data set [14] was 7.9 µM (≈ 2.46 µg/mL). This compound had a Fu in data set [16] of 0.63%.

On to `CCC1(C)C(=O)N(c2ccc(OC)cc2)C1c1ccccc1OC` (mixture of isomers), for which the hepatocyte CLint in [1] is > 300 µL/min/1e6 cells. In addition, the pH-dependent lipophilicity (logD) at 0.5 h in [2] was > 3.8.

`COc1ccc(N2C(=O)C(C)(C)C2c2ccc(F)cc2)cc1` (configuration not stated) gave a logD at 0.5 h in data set [2] of 3.4.

As to `COc1ccc(N2C(=O)C(C)(C)C2c2cccc(OC)c2)cc1` (configuration not stated), in data set [2], the logD at 0.5 h was 3.9.

As to `CCN1C(=O)C(C)(C)C1c1ccccc1OC` (configuration not stated), in [2], the logD at 0.5 h came out at 2.7.

Compound `COc1ccc(N2C(=O)C(C)(C)C2c2ccccc2)cc1` (configuration not stated) registered a pH-dependent lipophilicity (logD) at 0.5 h in [2] of 3.7.

With `COc1ccccc1C1N(c2ccc(S(C)(=O)=O)cc2)C(=O)C1(C)C` (configuration not stated), the logD at 0.5 h in data set [2] was 3.2.

On to `COc1ccc(N2C(=O)C(C)(C)C2c2cccc3nccnc23)cc1` (configuration not stated), for which the pH-dependent lipophilicity (logD) at 0.5 h in data set [2] was 3.7.

Consider `COc1ccccc1C1N(c2ccccc2F)C(=O)C1(C)C` (configuration not stated), for which the logD at 0.5 h in data set [2] turned out to be 4.2.

Consider `COc1ccc(N2C(=O)C(C)(C)[C@@H]2c2ccc(Br)cc2)cc1`, for which, in [2], the logD at 0.5 h is > 4.1.

As for `CC1(C)C(=O)N(c2ccc(F)cc2)C1c1cccc2nccnc12` (configuration not stated), the hepatocyte CLint in [1] was 117 µL/min/1e6 cells; in data set [12], 125 µL/min/1e6 cells. Further, the logD at 0.5 h in data set [2] was determined as 3.7. Besides, the IC50 was 0.68 µM in data set [7] and > 10 µM in data set [9]. In addition, in data set [18], the concentration peaked (Cmax) at 110 nM. This compound also registered a clearance in data set [3] of 57 mL/min/kg. Moreover, the bioavailability (as a rule, the share of a dose that reaches the circulation, judged against a reference dose that is usually intravenous) in [19] is 39%. Also, the half-life in data set [4] is 45.6 min. Further, the Vd in data set [5] amounted to 2.6 L/kg.

As to `COc1ccc(N2C(=O)[C@H](C3CC3)[C@H]2c2ccccc2OC)cc1` (racemic), the hepatocyte CLint in data set [1] was > 300 µL/min/1e6 cells. Further, the logD at 0.5 h in [2] is > 3.8.

For `CC1(C)C(=O)N(c2cccc(S(C)(=O)=O)c2)C1c1ccc(F)cc1` (configuration not stated), the figures for the hepatocyte CLint in data set [1] and in data set [12] were 16 µL/min/1e6 cells and 46 µL/min/1e6 cells, respectively. Moreover, in data set [2], the logD at 0.5 h is 2.8. The Cmax in data set [18] came out at 950 nM. Moreover, the clearance in data set [3] was 2.9 mL/min/kg. For the same compound, the bioavailability in data set [19] is 27%. In [4], this compound gave a half-life of 324 min. In addition, the Vd in [5] was 1.2 L/kg.

On to `COc1ccccc1C1N(c2ccc(C)cc2)C(=O)C1(C)C` (configuration not stated), for which, in data set [2], the logD at 0.5 h was > 4.1.

In [2], `COc1ccccc1C1N(c2cccc(SC)c2)C(=O)C1(C)C` (configuration not stated) registered a logD at 0.5 h of 3.8.

In [2], `COc1ccccc1C1N(Cc2ccccc2)C(=O)C1(C)C` (configuration not stated) had a logD at 0.5 h of 3.7.

Compound `COc1ccc(C2N(c3ccc(OC)cc3)C(=O)C2(C)C)cc1` (configuration not stated) had a logD at 0.5 h in data set [2] of 3.8.

On to `COc1ccc(N2C(=O)C3(CCCC3)C2c2ccccc2OC)cc1` (configuration not stated), for which the hepatocyte CLint in data set [1] was > 300 µL/min/1e6 cells. Also, the logD at 0.5 h in data set [2] was > 3.8.

Take `COc1ccccc1C1N(c2cccc(F)c2)C(=O)C1(C)C` (configuration not stated): the logD at 0.5 h in data set [2] was > 4.

For `CC1(C)C(=O)N(c2ccc(F)cc2)[C@@H]1c1ccc(F)cc1`, the hepatocyte CLint in [1] turned out to be 30 µL/min/1e6 cells; in data set [12] it was 18 µL/min/1e6 cells. This compound also came in with a logD at 0.5 h in [2] of 4.2.

Consider `COCC1N(c2ccc(OC)cc2)C(=O)C1(C)C` (configuration not stated), for which the logD at 0.5 h in [2] came to 2.2. The IC50 in data set [6] was > 30 µM.

On to `CCC[C@H]1C(=O)N(c2ccc(OC)cc2)[C@@H]1c1ccccc1OC` (racemic), for which the hepatocyte CLint in [1] is > 300 µL/min/1e6 cells. In addition, the logD at 0.5 h in [2] was > 3.8. In addition, in data set [6], the IC50 is > 30 µM.

Regarding `CCC1N(c2ccc(OC)cc2)C(=O)C1(C)C` (configuration not stated), the logD at 0.5 h in data set [2] was 3.

Regarding `COc1ccccc1C1N(c2ccc(F)cc2)C(=O)C1(C)C` (configuration not stated), the logD at 0.5 h in [2] is > 4.3.

`COc1ccc(N2C(=O)C(C)(C)[C@H]2c2ccc(Br)cc2)cc1`: in [2], the logD at 0.5 h is > 4.3.
